Measurements as given in paper PMC9683054, “Synthesis of N-(4-chlorophenyl) substituted pyrano[2,3-c]pyrazoles enabling PKBβ/AKT2 inhibitory and in vitro anti-glioma activity” (Annals of Medicine, 2022).

How the values were obtained:
AKT2/PKBβ = target: T1, AKT2/PKBβ (Homo sapiens, UniProt P31751, S474D); test: […]-γ-ATP radiometric kinase assay with purified kinase and Crosstide peptide; type: biochemical
T1 construct: ΔPH-PKBβ-S474D

AKT1/PKBα = target: T2, AKT1/PKBα (Homo sapiens, UniProt P31749, S473D); test: as above; type: biochemical
T2 construct: ΔPH-PKBα-S473D
T2 sequence (P31749 118-480 S473D limits assumed): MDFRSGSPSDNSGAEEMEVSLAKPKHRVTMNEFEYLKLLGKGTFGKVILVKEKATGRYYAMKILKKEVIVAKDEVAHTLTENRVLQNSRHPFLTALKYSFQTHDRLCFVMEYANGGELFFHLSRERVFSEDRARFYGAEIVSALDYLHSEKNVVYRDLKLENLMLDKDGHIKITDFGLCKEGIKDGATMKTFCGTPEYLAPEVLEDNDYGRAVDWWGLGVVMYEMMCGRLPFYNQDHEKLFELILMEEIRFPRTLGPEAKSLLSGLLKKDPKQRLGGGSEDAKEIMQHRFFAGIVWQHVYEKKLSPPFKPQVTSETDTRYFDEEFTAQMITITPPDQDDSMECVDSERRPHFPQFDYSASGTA

T1 sequence (P31751 119-481 S474D limits assumed): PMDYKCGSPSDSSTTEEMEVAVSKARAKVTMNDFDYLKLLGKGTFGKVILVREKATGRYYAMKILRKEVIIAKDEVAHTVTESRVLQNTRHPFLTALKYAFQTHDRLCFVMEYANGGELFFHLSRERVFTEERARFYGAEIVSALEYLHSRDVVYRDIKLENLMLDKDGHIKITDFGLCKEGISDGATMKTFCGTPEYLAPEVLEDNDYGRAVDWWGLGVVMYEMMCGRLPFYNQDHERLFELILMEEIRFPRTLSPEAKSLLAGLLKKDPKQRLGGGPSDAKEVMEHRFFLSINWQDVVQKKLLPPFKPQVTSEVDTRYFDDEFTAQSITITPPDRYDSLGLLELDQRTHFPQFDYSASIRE

With `Cc1nn(-c2ccc(Cl)cc2)c2c1C(c1ccc(-c3ccccc3)cc1)C(C#N)=C(N)O2` (centres unmarked) [4j, 6-Amino-4-(biphenyl-4-yl)-1-(4-chlorophenyl)-3-methyl-1,4-dihydropyrano[2,3-c]pyrazole-5-carbonitrile] as the compound, how does the IC50 (AKT2/PKBβ) read?
Its IC50 is 12 µM.

What about the IC50 (AKT1/PKBα) of the same compound?
The IC50 was 14 µM.
